This note sets out measurements from patent US20010013317A1, “Medium for coloring live bait worms” (priority 1999, published 2001).

Data set [1] concerns live bait worms. Nature of the data set: Coloring and viability of live bait worms kept in peat loam medium mixed with colorant (8 oz cup, 12 worms). In kind it is in vivo. Conditions: for Effectiveness as worm coloring agent (coloration of worms) / Worm viability / mortality: powdered colorant in peat loam, 8 oz cup, inspected at 24 hrs, 36 hrs, 3-4 weeks. From the text:
The inventor conducted numerous experiments to determine the effectiveness of a number of color additives to color live bait worms.
Experimental procedure. Each powdered colorant was mixed with peat loam medium and added to an 8 oz cup containing 12 healthy and natural worms. Concentrations given as mg colorant per 8 oz cup containing about 120 g peat loam. Worms were inspected for color and viability 24 hrs., 36 hrs., and when still viable, 3-4 weeks later.

For data set [2], the system named is live bait worms. As to the kind of experiment: Incubation and storage of worms in bait cup topped with coloring medium. Conditions: 8-24 worms, 8 to 12 ounce cup, coloring medium 5 g colorant per kg, stored at 34° F. to 38° F. In kind it is in vivo. The protocol:
Alternatively, after the incubation, the above bulk colored worms can be divided into smaller amounts and stored in actual point-of-sale containers ready for use as bait by the end user rather than in bulk containers. For example, 8-24 of the worms previously colored in bulk as described above can be added to a normal 8 to 12 ounce Styrofoam, paper, or plastic bait cup and topped with the coloring medium (containing 5 g colorant D&C Yellow 8 per kg of the storage medium). When the container is capped with a lid and stored at 34° F. to 38° F., the worms will remain viable, and colored for about four to six weeks and are ready for immediate use as bait.
In another application of the process, the incubation and storage can be carried out in the same vessel. […]. In this case, the regular, uncolored, worms require an initial incubation period of about one week to lapsed before the worms acquire the desired color and intensity to be used as colored bait worms. The worms will then remain colored and viable in the bait cup of about four to six weeks. In both examples, the worms can be kept viable and colored indefinitely, if required, simply by changing the coloring medium once it has been consumed.

A short description of data set [3]: Solubility of colorant in water. The following applies: at 25° C.
Setting [4] is: mg colorant per 8 oz cup containing about 120 g peat loam, 12 worms.
Setting [5] is: 12 worms, listed as D&C Yellow No. 8.

Converted amounts (≈) assume the structure as drawn. “Also recorded” adds a separate entry of the source.

As for `O=C([O-])c1c(Cl)c(Cl)c(Cl)c(Cl)c1-c1c2cc(Br)c(=O)c(Br)c-2oc2c(Br)c([O-])c(Br)cc12.[Na+].[Na+]` [D & C Red 28], the “Concentration range in which worms become colored” value in the data set with live bait worms [1] (setting [4]) was “tration between 50-800 mg”. In the data set with live bait worms [1] (12 worms), the “Effectiveness as worm coloring agent (coloration of worms)” value (“Effectiveness as worm coloring agent” below) is given as “Worms become pinkish” and the “Worm viability / mortality” value is “mg. Increased mortality”.

With `O=C1OC2(c3ccc([O-])cc3Oc3cc([O-])ccc32)c2ccccc21.[Na+].[Na+]` [D & C Yellow 8, uranine], the “Amount at which dye remains non-toxic to worms” value in the data set on live bait worms [1] (bait cup containing 12 worms) is on record as “about 2500 mg/8 ounce bait cup”. Moreover, the “Amount at which dye remains non-toxic, per worm” value with live bait worms [1] (from 2500 mg/8 ounce cup with 12 worms) was “about 150 mg dye per worm”. Also, in the data set on live bait worms [1] (setting [4]), the “Concentration at which worms remain very healthy and viable” value is listed as “centration of >2500 mg”; the “Lowest concentration at which worms become and remain colored” value was ≤ 25 mg. Preferred range. In the data set with live bait worms [1] (12 worms), the “Effectiveness as worm coloring agent” value is listed as “main bright Chartreuse”; the “Worm viability / mortality” value was “very healthy and viable”. Moreover, in the data set with live bait worms [1] (setting [5]), the “Effectiveness as worm coloring agent” value is “intense fluorescent chartreuse color” and the “Worm viability / mortality” value is reported as “non-toxic to worms; also recorded: not detrimental to the viability of the worms”. In addition, the “Time worms remain viable and colored in bait cup” value in the data set with live bait worms [2] is “about four to six”.

Consider `CCN(Cc1cccc(S(=O)(=O)[O-])c1)c1ccc(C(=C2C=CC(=[N+](CC)Cc3cccc(S(=O)(=O)[O-])c3)C=C2)c2ccccc2S(=O)(=O)[O-])cc1.[Na+].[Na+]` [FD & C Blue 1], for which, in the data set on live bait worms [1] (12 worms), the “Effectiveness as worm coloring agent” value is given as “main blue. Worms” and the “Worm viability / mortality” value is given as “viable if carefully”.

As for `O=C1/C(=C2\Nc3ccc(S(=O)(=O)[O-])cc3C2=O)Nc2ccc(S(=O)(=O)[O-])cc21.[Na+].[Na+]` [FD & C Blue 2], in the data set with live bait worms [1] (12 worms), the “Effectiveness as worm coloring agent” value is listed as “No colorization. Worms” and the “Worm viability / mortality” value is reported as “remain viable”. Moreover, the Solubility in water in data set [3] came out at 2 mg/mL.

In the case of `COc1cc(S(=O)(=O)[O-])c(C)cc1N=Nc1c(O)ccc2cc(S(=O)(=O)[O-])ccc12.[Na+].[Na+]` [FD & C Red 40], in the data set on live bait worms [1] (12 worms), the “Effectiveness as worm coloring agent” value is on record as “No coloration. Worms” and the “Worm viability / mortality” value is given as “remain viable”. Also, the Solubility in water in data set [3] was determined as 22 mg/mL.

Consider `O=C(O)c1nn(-c2ccc(S(=O)(=O)O)cc2)c(O)c1N=Nc1ccc(S(=O)(=O)O)cc1` [FD & C Yellow 5], for which, in the data set on live bait worms [1] (12 worms), the “Effectiveness as worm coloring agent” value is reported as “Color not retained” and the “Worm viability / mortality” value is “Worms remain viable”. Moreover, the Solubility in water in data set [3] is 20 mg/mL (≈ 42.7 mM).

With `O=S(=O)([O-])c1ccc(N=Nc2c(O)ccc3cc(S(=O)(=O)[O-])ccc23)cc1.[Na+].[Na+]` [FD & C Yellow 6], in the data set with live bait worms [1] (12 worms), the “Effectiveness as worm coloring agent” value was “No coloration. Worms” and the “Worm viability / mortality” value is on record as “remain viable”.
